What was measured:
[1] = target: T1, human serotonin 5-HT2A receptor (Homo sapiens, UniProt P28223); assay: Radioligand binding ([3H]-ketanserin) to membranes of HEK-293 EBNA cells expressing human 5-HT2A receptor; settings: 1.1 nM [3H]-ketanserin, HEK-293 EBNA membranes, 1 h at RT
T1 construct: expressed in transfected cells; host or cells: HEK-293 EBNA cells, transient transfection; membrane preparation
In short: (§1)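 Membranes from HEK-293 EBNA cells transiently transfected with the receptor were incubated 1 h at RT with ten test concentrations (10 μM–0.1 nM) and ~0.7 nM [3H]-spiperone (D2), 0.5 nM [3H]-spiperone (D3) or 1.1 nM [3H]-ketanserin (5-HT2A). Nonspecific binding was set with 10 μM spiperone, bound radioactivity was read by filtration and scintillation, and Ki was taken from IC50 via Cheng-Prusoff.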

[2] = target: T2, human dopamine D3 receptor (Homo sapiens, UniProt P35462); assay: Radioligand binding ([3H]-spiperone) to membranes of HEK-293 EBNA cells expressing human D3 receptor; settings: human D3, 0.5 nM [3H]-spiperone, HEK-293 EBNA membranes, 1 h at RT
T2 construct: expressed in transfected cells; host or cells: HEK-293 EBNA cells, transient transfection; membrane preparation
T2 sequence (P35462 whole entry): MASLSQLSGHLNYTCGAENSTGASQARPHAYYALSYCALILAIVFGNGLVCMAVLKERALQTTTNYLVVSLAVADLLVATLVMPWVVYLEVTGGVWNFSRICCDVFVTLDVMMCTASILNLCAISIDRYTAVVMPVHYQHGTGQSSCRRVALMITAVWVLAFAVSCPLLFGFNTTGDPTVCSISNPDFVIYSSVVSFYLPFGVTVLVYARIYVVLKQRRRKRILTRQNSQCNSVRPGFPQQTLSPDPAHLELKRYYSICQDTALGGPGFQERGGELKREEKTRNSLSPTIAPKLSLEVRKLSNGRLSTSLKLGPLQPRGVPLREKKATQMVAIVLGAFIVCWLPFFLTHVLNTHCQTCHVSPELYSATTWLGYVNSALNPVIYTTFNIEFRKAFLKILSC
In short: as §1

[3] = target: T3, human dopamine D2 receptor (Homo sapiens, UniProt P14416); assay: Radioligand binding ([3H]-spiperone) to membranes of HEK-293 EBNA cells expressing human D2 receptor; settings: human D2, 0.7 nM [3H]-spiperone, HEK-293 EBNA membranes, 1 h at RT
T3 construct: expressed in transfected cells; host or cells: HEK-293 EBNA cells, transient transfection; membrane preparation
T3 sequence (P14416 whole entry): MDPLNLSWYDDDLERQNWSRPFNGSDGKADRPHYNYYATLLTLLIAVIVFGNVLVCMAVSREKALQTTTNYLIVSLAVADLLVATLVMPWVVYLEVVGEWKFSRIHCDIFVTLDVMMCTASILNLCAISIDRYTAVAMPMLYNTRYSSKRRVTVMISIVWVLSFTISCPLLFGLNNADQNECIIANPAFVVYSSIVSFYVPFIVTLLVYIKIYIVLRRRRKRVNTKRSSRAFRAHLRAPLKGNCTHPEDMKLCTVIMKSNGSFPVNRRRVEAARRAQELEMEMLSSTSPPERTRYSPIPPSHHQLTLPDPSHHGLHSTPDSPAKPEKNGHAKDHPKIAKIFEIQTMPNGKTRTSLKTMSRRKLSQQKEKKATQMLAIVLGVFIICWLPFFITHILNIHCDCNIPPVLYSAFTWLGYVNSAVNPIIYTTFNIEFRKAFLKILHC
In short: as §1

T1 sequence (P28223 whole entry): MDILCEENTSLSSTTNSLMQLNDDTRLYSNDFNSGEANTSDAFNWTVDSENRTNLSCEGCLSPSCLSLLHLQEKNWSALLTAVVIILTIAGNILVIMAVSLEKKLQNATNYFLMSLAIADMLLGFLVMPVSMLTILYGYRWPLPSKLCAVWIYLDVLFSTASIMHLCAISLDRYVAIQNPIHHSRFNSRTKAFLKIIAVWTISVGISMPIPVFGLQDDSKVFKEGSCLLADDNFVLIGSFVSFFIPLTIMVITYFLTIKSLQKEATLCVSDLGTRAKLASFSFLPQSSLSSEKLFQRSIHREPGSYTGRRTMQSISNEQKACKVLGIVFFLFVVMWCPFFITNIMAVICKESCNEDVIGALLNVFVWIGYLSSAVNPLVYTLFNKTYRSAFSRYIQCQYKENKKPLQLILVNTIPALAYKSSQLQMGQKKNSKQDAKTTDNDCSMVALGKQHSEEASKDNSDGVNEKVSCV

| Ki [1] [nM] | Ki [2] [nM] | Ki [3] [nM] | Structure (SMILES) |
| --- | --- | --- | --- |
| 3.22 | 12.5 | 2920 | O=C(C[C@H]1CC[C@H](O)CC1)N[C@H]1CC[C@H](CCN2CCN(c3noc4cc(Cl)ccc34)CC2)CC1 [Example 43, N-trans-(4-{2-[4-(6-Chloro-benzo[d]isoxazol-3-yl)-piperazin-1-yl]-ethyl}-cyclohexyl)-2-trans-(4-hydroxy-cyclohexyl)-acetamide] |
| 5.92 | 1.65 | 1500 | O=C(CC1CC1)N[C@H]1CC[C@H](CCN2CCN(c3noc4cc(F)c(Cl)cc34)CC2)CC1 [Example 75, N-trans-(4-{2-[4-(5-Chloro-6-fluoro-benzo[d]isoxazol-3-yl)-piperazin-1-yl]-ethyl}-cyclohexyl)-2-cyclopropyl-acetamide] |
| 9.21 | 15.8 | 356 | C[C@H](O)CC(=O)N[C@H]1CC[C@H](CCN2CCN(c3noc4cc(Cl)ccc34)CC2)CC1 [Example 45, (S)-N-(4-{2-[4-(6-Chloro-benzo[d]isoxazol-3-yl)-piperazin-1-yl]-ethyl}-cyclohexyl)-3-hydroxy-butyramide] |
| 26.2 | 10 | 718 | COC[C@H]1C[C@H](CC(=O)N[C@H]2CC[C@H](CCN3CCN(c4noc5ccc(F)cc45)CC3)CC2)C1 [Example 27, N-trans-(4-{2-[4-(5-Fluoro-benzo[d]isoxazol-3-yl)-piperazin-1-yl]-ethyl}-cyclohexyl)-2-trans-(3-methoxymethyl-cyclobutyl)-acetamide] |
| 7.59 | 14.4 | 11300 | CO[C@H]1CC[C@H](CC(=O)N[C@H]2CC[C@H](CCN3CCN(c4noc5cc(F)c(F)cc45)CC3)CC2)CC1 [Example 58, N-trans-(4-{2-[4-(5,6-Difluoro-benzo[d]isoxazol-3-yl)-piperazin-1-yl]-ethyl}-cyclohexyl)-2-trans-(4-methoxy-cyclohexyl)-acetamide] |
| 2.99 | 1.37 | 11100 | Cc1cc(CC(=O)N[C@H]2CC[C@H](CCN3CCN(c4noc5cc(F)c(Cl)cc45)CC3)CC2)on1 [Example 82, N-trans-(4-{2-[4-(5-Chloro-6-fluoro-benzo[d]isoxazol-3-yl)-piperazin-1-yl]-ethyl}-cyclohexyl)-2-(3-methyl-isoxazol-5-yl)-acetamide] |
| 17.8 | 16.4 | 641 | CCS(=O)(=O)N[C@H]1CC[C@H](CCN2CCN(c3noc4cc(F)c(F)cc34)CC2)CC1 [Example 68, Ethanesulfonic acid N-trans-(4-{2-[4-(5,6-difluoro-benzo[d]isoxazol-3-yl)-piperazin-1-yl]-ethyl}-cyclohexyl)-amide] |
| 7.72 | 30 | 2670 | O=C(N[C@H]1CC[C@H](CCN2CCN(c3noc4cc(F)c(F)cc34)CC2)CC1)C1CCOCC1 [Example 67, Tetrahydro-pyran-4-carboxylic acid N-trans-(4-{2-[4-(5,6-difluoro-benzo[d]isoxazol-3-yl)-piperazin-1-yl]-ethyl}-cyclohexyl)-amide] |
| 2.3 | 6.96 | 206 | COC(CC(=O)N[C@H]1CC[C@H](CCN2CCN(c3noc4cc(C)ccc34)CC2)CC1)OC [Example 103, 3,3-Dimethoxy-N-trans-(4-{2-[4-(6-methyl-benzo[d]isoxazol-3-yl)-piperazin-1-yl]-ethyl}-cyclohexyl)-propionamide] |
| 15.4 | 6.34 | 752 | O=C(CC1COCCO1)N[C@H]1CC[C@H](CCN2CCN(c3noc4ccc(F)cc34)CC2)CC1 (stereo partly drawn) [Example 15, 2-[1,4]Dioxan-2-yl-N-trans-(4-{2-[4-(5-fluoro-benzo[d]isoxazol-3-yl)-piperazin-1-yl]-ethyl}-cyclohexyl)-acetamide] |
| 32.7 | 7.81 | 1030 | CC1(C)C[C@@H](CC(=O)N[C@H]2CC[C@H](CCN3CCN(c4noc5ccc(F)cc45)CC3)CC2)CCO1 [Example 22, 2-((S)-2,2-Dimethyl-tetrahydro-pyran-4-yl)-N-(4-{2-[4-(5-fluoro-benzo[d]isoxazol-3-yl)-piperazin-1-yl]-ethyl}-cyclohexyl)-acetamide] |
| 12.4 | 14.8 | 362 | O=C(N[C@H]1CC[C@H](CCN2CCN(c3noc4cc(Cl)ccc34)CC2)CC1)C(O)C(F)(F)F (mixture of isomers) [Example 33, N-trans-(4-{2-[4-(6-Chloro-benzo[d]isoxazol-3-yl)-piperazin-1-yl]-ethyl}-cyclohexyl)-rac-3,3,3-trifluoro-2-hydroxy-propionamide] |
| 17 | 31 | > 9700 | Cc1cc2c(N3CCN(CC[C@H]4CC[C@H](NC(=O)C[C@@H]5COCCO5)CC4)CC3)noc2cc1F [Example 114, 2-(R)-[1,4]Dioxan-2-yl-N-trans-(4-{2-[4-(6-fluoro-5-methyl-benzo[d]isoxazol-3-yl)-piperazin-1-yl]-ethyl}-cyclohexyl)-acetamide] |
| 4.96 | 8.88 | 272 | CC(=O)N[C@H]1CC[C@H](CCN2CCN(c3noc4ccccc34)CC2)CC1 [Example 2, N-trans-{4-[2-(4-benzo[d]isoxazol-3-yl-piperazin-1-yl)-ethyl]-cyclohexyl}-acetamide] |
| 11.8 | 10.1 | 598 | CC(C)(O)CC(=O)N[C@H]1CC[C@H](CCN2CCN(c3noc4cc(F)c(F)cc34)CC2)CC1 [Example 64, N-trans-(4-{2-[4-(5,6-Difluoro-benzo[d]isoxazol-3-yl)-piperazin-1-yl]-ethyl}-cyclohexyl)-3-hydroxy-3-methyl-butyramide] |
| 6.94 | 26.3 | 2930 | COC1CCC(C(=O)N[C@H]2CC[C@H](CCN3CCN(c4noc5cc(F)c(F)cc45)CC3)CC2)CC1 (stereo partly drawn) [Example 66, 4-Methoxy-cyclohexanecarboxylic acid N-trans(4-{2-[4-(5,6-difluoro-benzo[d]isoxazol-3-yl)-piperazin-1-yl]-ethyl}-cyclohexyl)-amide] |
| 10.9 | 8.7 | 675 | CCC(=O)N[C@H]1CC[C@H](CCN2CCN(c3noc4cc(Cl)ccc34)CC2)CC1 [Example 41, N-trans-(4-{2-[4-(6-Chloro-benzo[d]isoxazol-3-yl)-piperazin-1-yl]-ethyl}-cyclohexyl)-propionamide] |
| 3.37 | 10.4 | 3020 | CC(C)OC1CCC(CC(=O)N[C@H]2CC[C@H](CCN3CCN(c4noc5cc(Cl)ccc45)CC3)CC2)CC1 (mixture of isomers) [Example 51, N-trans-(4-{2-[4-(6-Chloro-benzo[d]isoxazol-3-yl)-piperazin-1-yl]-ethyl}-cyclohexyl)-2-(4-isopropoxy-cyclohexyl)-acetamide] |
| 1.84 | 0.58 | 197 | COC(=O)N[C@H]1CC[C@H](CCN2CCN(c3noc4cc(F)c(Cl)cc34)CC2)CC1 [Example 91, N-trans-(4-{2-[4-(5-Chloro-6-fluoro-benzo[d]isoxazol-3-yl)-piperazin-1-yl]-ethyl}-cyclohexyl)-carbamic acid methyl ester] |
| 9.5 | 20.4 | 878 | COCC(=O)N[C@H]1CC[C@H](CCN2CCN(c3noc4cc(F)c(F)cc34)CC2)CC1 [Example 60, N-trans-(4-{2-[4-(5,6-Difluoro-benzo[d]isoxazol-3-yl)-piperazin-1-yl]-ethyl}-cyclohexyl)-2-methoxy-acetamide] |

— US7858630B2, “D3 and 5-HT2A receptor modulators” (Hoffmann-La Roche Inc., priority 2008, dated 2010)
